From PubChem BioAssay AID328 (DTP/NCI, 2004)
Toxic doses and inconclusive results are not listed.

Tested on: BDF1 mice, P388 leukemia ip, median survival T/C
Experiment: NCI In Vivo Anticancer Drug Screen. Data for tumor model P388 Leukemia (intraperitoneal) in B6D2F1 (BDF1) mice
Details: endpoint: median survival time, higher = longer survival
Outline: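 Steps: implant the tumour, treat one group with compound and another with vehicle, record survival, then divide treated by control.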

[1] = dose: 100.0 mg/kg/injection, schedule: Q01DX009 (ip), vehicle: Klucel (hydroxypropylcellulose) (HPC)
[2] = dose: 100.0 mg/kg/injection, schedule: Q04DX003 (ip), vehicle: Klucel (hydroxypropylcellulose) (HPC)
[3] = dose: 200.0 mg/kg/injection, schedule: Q04DX003 (ip), vehicle: Klucel (hydroxypropylcellulose) (HPC)
[4] = dose: 400.0 mg/kg/injection, schedule: Q01DX009 (ip), vehicle: Klucel (hydroxypropylcellulose) (HPC)
[5] = dose: 400.0 mg/kg/injection, schedule: Q04DX003 (ip), vehicle: Klucel (hydroxypropylcellulose) (HPC)
[6] = dose: 25.0 mg/kg/injection, schedule: Q04DX003 (ip), vehicle: saline
[7] = dose: 50.0 mg/kg/injection, schedule: Q04DX003 (ip), vehicle: saline
[8] = dose: 100.0 mg/kg/injection, schedule: Q04DX003 (ip), vehicle: saline

`Cc1ccc(NC(=O)c2ccccc2)cc1[As]=[As]c1cc(NC(=O)c2ccccc2)ccc1C` (centres undefined) was tested, and the T/C (dose: 1.25 mg/kg/injection, schedule: Q01DX009 (ip), vehicle: gum acacia) was 150 % of control, the T/C (dose: 1.25 mg/kg/injection, schedule: Q04DX003 (ip), vehicle: gum acacia) was 122 % of control and the T/C (dose: 2.2 mg/kg/injection, schedule: Q04DX003 (ip), vehicle: gum acacia) was 113 % of control. For the same compound, the T/C (dose: 2.5 mg/kg/injection, schedule: Q01DX009 (ip), vehicle: gum acacia) was 165 % of control, the T/C (dose: 3.3 mg/kg/injection, schedule: Q04DX003 (ip), vehicle: Klucel (hydroxypropylcellulose) (HPC)) was 116 % of control and the T/C (dose: 5.0 mg/kg/injection, schedule: Q04DX003 (ip), vehicle: Klucel (hydroxypropylcellulose) (HPC)) was 104 % of control. For the same compound, the T/C (dose: 10.0 mg/kg/injection, schedule: Q04DX003 (ip), vehicle: gum acacia) was 154 % of control.

In the case of `CC(=O)Nc1ccc2c([N+](=O)[O-])cccc2c1-c1c(NC(C)=O)ccc2c([N+](=O)[O-])cccc12`, the T/C [1] is reported as 110 % of control, the T/C [2] is reported as 109 % of control and the T/C [3] is reported as 100 % of control. For the same compound, the T/C [4] was 95 % of control and the T/C [5] was 100 % of control.

`CCCCCCCCCCOP(N)(=O)OCCCCCCCCCC` was tested, and the T/C [6] was 115 % of control, the T/C (dose: 50.0 mg/kg/injection, schedule: Q01DX009 (ip), vehicle: saline with Tween-80) was 90 % of control and the T/C [7] was 110 % of control. The T/C (dose: 100.0 mg/kg/injection, schedule: Q01DX009 (ip), vehicle: saline with Tween-80) was 86 % of control, the T/C (dose: 100.0 mg/kg/injection, schedule: Q04DX003 (ip), vehicle: saline with Tween-80) was 95 % of control and the T/C [8] was 110 % of control. For the same compound, the T/C (dose: 150.0 mg/kg/injection, schedule: Q04DX003 (ip), vehicle: saline) was 110 % of control, the T/C (dose: 200.0 mg/kg/injection, schedule: Q04DX003 (ip), vehicle: saline with Tween-80) was 95 % of control and the T/C (dose: 225.0 mg/kg/injection, schedule: Q04DX003 (ip), vehicle: saline) was 105 % of control.

In the case of `CC(C)(C)[Si](C)(C)OC(=O)Nc1ccc(N(CCCl)CCCl)cc1`, the T/C (dose: 0.05 mg/kg/injection, schedule: Q01DX009 (ip), vehicle: saline with Tween-80) is reported as 104 % of control, the T/C (dose: 0.07 mg/kg/injection, schedule: Q01DX009 (ip), vehicle: saline with Tween-80) is reported as 114 % of control and the T/C (dose: 0.11 mg/kg/injection, schedule: Q01DX009 (ip), vehicle: saline with Tween-80) is reported as 117 % of control. For the same compound, the T/C (dose: 0.16 mg/kg/injection, schedule: Q01DX009 (ip), vehicle: saline with Tween-80) was 108 % of control and the T/C (dose: 0.32 mg/kg/injection, schedule: Q01DX009 (ip), vehicle: saline with Tween-80) was 107 % of control.

For `COC1=C(OC)C(=O)C2=C(OCCO2)C1=O`, the T/C (dose: 100.0 mg/kg/injection, schedule: Q01DX001 (ip), vehicle: saline with Tween-80) was 104 % of control.

For `O=C1OC2C(I)C3CCC2C1C3` (centres undefined), the T/C (dose: 100.0 mg/kg/injection, schedule: Q01DX009 (ip), vehicle: saline) was 105 % of control, the T/C [8] was 121 % of control and the T/C (dose: 200.0 mg/kg/injection, schedule: Q01DX009 (ip), vehicle: saline) was 115 % of control. For the same compound, the T/C (dose: 200.0 mg/kg/injection, schedule: Q04DX003 (ip), vehicle: saline) was 95 % of control and the T/C (dose: 400.0 mg/kg/injection, schedule: Q04DX003 (ip), vehicle: saline) was 95 % of control.

`CS(=O)(=O)OCCCCCCCCCOS(C)(=O)=O` was tested, and the T/C (dose: 33.0 mg/kg/injection, schedule: Q04DX003 (ip), vehicle: saline with Tween-80) was 104 % of control and the T/C (dose: 50.0 mg/kg/injection, schedule: Q04DX003 (ip), vehicle: saline with Tween-80) was 113 % of control.

With `N#Cc1cnn(CCO)c1N` the T/C (dose: 100.0 mg/kg/injection, schedule: Q01DX009 (ip), vehicle: water) was 90 % of control, the T/C (dose: 100.0 mg/kg/injection, schedule: Q04DX003 (ip), vehicle: water) was 100 % of control and the T/C (dose: 200.0 mg/kg/injection, schedule: Q01DX009 (ip), vehicle: water) was 113 % of control. For the same compound, the T/C (dose: 200.0 mg/kg/injection, schedule: Q04DX003 (ip), vehicle: water) was 100 % of control, the T/C (dose: 400.0 mg/kg/injection, schedule: Q01DX009 (ip), vehicle: water) was 109 % of control and the T/C (dose: 400.0 mg/kg/injection, schedule: Q04DX003 (ip), vehicle: water) was 104 % of control.

`CCCCC(=O)c1ccc(F)cc1` was tested, and the T/C [1] was 95 % of control, the T/C [2] was 91 % of control and the T/C (dose: 200.0 mg/kg/injection, schedule: Q01DX009 (ip), vehicle: Klucel (hydroxypropylcellulose) (HPC)) was 104 % of control. For the same compound, the T/C [3] was 104 % of control, the T/C [4] was 109 % of control and the T/C [5] was 91 % of control.

`N#Cc1cnn(C(N)=S)c1N` was tested, and the T/C [6] was 104 % of control, the T/C [7] was 104 % of control and the T/C [8] was 100 % of control.
